The assay relates to L1210. The assay is described as follows: In vitro antitumor activity against L1210 cancer cell line. The format is functional, cell-based. Conditions: Mus musculus.

One may read the IC50 as the point on the concentration scale where inhibition reaches its midpoint. Read a high IC50 as weaker potency in that assay.

Molecules are shown by their SMILES.

Molecule `O=C(/N=C\NNC(=O)NO)NO` had an IC50 of 82 µM.

The values above are taken from ChEMBL document CHEMBL1145997, “Understanding the antitumor activity of novel hydroxysemicarbazide derivatives as ribonucleotide reductase inhibitors using CoMFA and CoMSIA” (J Med Chem, 2003).
